Measurements from patent publication US20150342960A1, “DRUG COMBINATIONS FOR TREATMENT OF MELANOMA AND OTHER CANCERS” (Memorial Sloan Kettering Cancer Center, priority 2014, published 2015).
pIC50: −log10 of the molar value. Where two headings read alike, the source gives them in different places.

Columns and labels:
Type in all cases: cell-based
[1] = system: AKTpS473; assay: Western blot IC40 of downstream effector readout; details: 40% inhibition of AKTpS473, Western Blot
Method: (§1) In total, cells were treated with 89 unique perturbations (Table 3). In paired combinations, each drug concentration was selected to inhibit the readout for the presumed target or the downstream effectors by 40% (IC40) as determined by Western Blot experiments. In single agent perturbations, each drug is applied at two different concentrations, IC40 and 2×IC40.

[2] = system: c-Myc; assay: c-Myc level by reverse phase protein arrays (RPPA); details: Skmel133 cells, average of three replicates
Method: Proteomic response profiles to perturbations were measured using reverse phase protein arrays. The cells were lysed 24 hours after drug treatment. Three biological replicates were spotted for each sample (e.g., drug condition) on RPPA slides. Each slide was stained with the respective Ab and 138 proteomic entities (total or phosho levels) and were profiled using specific Abs with the RPPA (Table 3).
FIG. 14 depicts changes in c-Myc levels in response to perturbations in Skmel133 cells as measured in RPPA experiments. Each data point was log normalized with respect to the c-Myc level in unperturbed condition. c-Myc level was highest in the presence of CDK4i. Various drug combinations that included STAT3 and mTOR inhibitors follow CDK4i combinations. cMyc level was lowest when cells were perturbed with MEK, BRAF, SRC, PKC and HDAC inhibitors, respectively. Each data-point is the average of RPPA readouts from three replicates.

[3] = system: P27/Kip1; assay: Western blot IC40 of downstream effector readout; details: IC40 on P27/Kip1 readout
Method: as §1

[4] = system: SkMel133 cells; assay: Cell viability, resazurin assay; details: for Emax: read-out: maximal effect level (Amax, response to the drugs at highest doses)
Method: RAFi resistant melanoma cell line SkMel133 was used in all perturbation experiments. SkMel133 cells were perturbed with 12 targeted drugs applied as single agents or in paired combinations.
All phenotypic measurements were made in perturbation conditions identical to those in proteomic measurements. Cell viability and cell cycle progression were measured 72 hours after drug treatment using the Resazurin assay and flow cytometry analysis respectively. The percentage of cells in the G1, G2/M, and S phases and sub-G1 fraction were recorded based on the respective distribution of DNA content in each phase.

[5] = system: SkMel133 cells; assay: Cell cycle progression, flow cytometry; details: for cells in G1 stage: 24 hours after treatment, 39% when not treated
Method: All phenotypic measurements were made in perturbation conditions identical to those in proteomic measurements. […] The percentage of cells in the G1, G2/M, and S phases and sub-G1 fraction were recorded based on the respective distribution of DNA content in each phase.

[6] = system: SkMel133 cells; assay: Apoptotic response of melanoma cells; details: 48 hours after treatment; 3% in unperturbed cells
Method: Finally, the cell cycle progression and apoptotic response of melanoma cells to JQ1 were measured. JQ1 (500 nM) induces a 50% increase in cells at G1-phase compared to the unperturbed cells (FIG. 8). […] More specifically, FIG. 8 depicts cell cycle arrest response of melanoma cells to JQ1 and MEKi combination. 51% and 88% of cells are in G1 stage 24 hours after JQ1 and MEKi treatment, respectively. JQ1+MEKi combination has an increased effect on G1 cell cycle arrest (G1=92%). 39% of cells are in G1 when they are not treated with drugs (error bars in right panel: ±SE in 3 biological replicates).

[7] = system: c-Myc; assay: Western blot of c-Myc expression; details: SkMel133, western blot, 24 hours after drug treatment
From the text: First, it was postulated whether c-Myc levels in SkMel133 cells could be targeted using JQ1. […] Therefore, total c-Myc levels are targeted using JQ1, either as a single agent or in combination with inhibitors of the RAF/MEK/ERK pathway.

[8] = system: BRD4; assay: Western blot of BRD4 level; details: 24 hours after JQ1 treatment
Method: FIGS. 6A-6E illustrate the combined targeting of c-Myc with MEK and BRAF leads to synergistic response in melanoma cells. […] The leftward shift of isocurves implies synergistic interactions between the applied perturbations. u denotes strength of in silico perturbations. […] The BRD4 level is unchanged in response to JQ1 treatment. […] C-Myc expression is targeted with BRD4 inhibitor, JQ1. […] Cell viability is measured using the resazurin assay. […] The combination index (CI) calculated using the drug dose response curves quantifies the drug interactions between JQ1, MEKi and RAFi (left panel). CI for a given level of inhibition is a measure of the fractional shift between the combination doses (C1 and C2) and the single agent's inhibitory concentration (Cx,1, Cx,2). It is formulated as CI=(C1/Cx,1)[…](C2/Cx,2). Amax is the response of melanoma cells to JQ1, MEKi and RAFi at highest doses applied (right panel). 1-Amax is the fraction of cells alive in response to highest drug dose normalized with respect to the non-drug treated condition. […] 86% of cells are in G1 state 48 hours after JQ1 treatment, while 42% of the cells are in G1 state before drug treatment (error bars: ±SEM in 3 biological replicates).

[9] = system: 4EBP1pS65; assay: Western blot IC40 of downstream effector readout; details: 40% inhibition of 4EBP1pS65, Western Blot
Method: as §1

[10] = system: GSK3pS21; assay: Western blot IC40 of downstream effector readout; details: 40% inhibition of GSK3pS21, Western Blot
Method: as §1

[11] = system: MAPK1pT202; assay: Western blot IC40 of downstream effector readout; details: 40% inhibition of MAPK1pT202, Western Blot
Method: as §1

[12] = system: S6pS240; assay: Western blot IC40 of downstream effector readout; details: 40% inhibition of S6pS240, Western Blot
Method: as §1

[13] = system: STAT3pY705; assay: Western blot IC40 of downstream effector readout; details: 40% inhibition of STAT3pY705, Western Blot
Method: as §1

[14] = SkMel133, highest doses applied, normalized to non-drug treated condition

O=c1[nH]c2ccccc2n1C1CCN(Cc2ccc(-c3nc4cc5nc[nH]c5cc4nc3-c3ccccc3)cc2)CC1 [AKTi 1/2]
Dose 1 (IC40 of downstream effector readout) [1]: 5.000 nM

O=C(CCCCCCSc1ccc2ccccc2c1)NO [HNHA]
c-Myc level relative to unperturbed condition [2]: lowest
Dose 1 (IC40 of downstream effector readout) [3]: 6,000 nM

Cc1sc2c(c1C)C(c1ccc(Cl)cc1)=N[C@@H](CC(=O)OC(C)(C)C)c1nnc(C)n1-2 [JQ1]
pIC50 ([4]; SkMel133, combined with 5 nM MEK inhibitor, read-out: concentration of JQ1 reducing viability by 50%): 7.00
maximal effect level (Amax, response to the drugs at highest doses) [4, 14]: 10%
pIC50 ([4]; SkMel133, single agent, read-out: cell viability IC50): 6.70
cells in G1 stage [5]: 51%
cells in G1 state ([5]; 48 hours after treatment, 42% before drug treatment): 86%
increase in cells at G1-phase compared to the unperturbed cells ([5]; JQ1 500 nM): 50%
apoptosis [6]: 11%
c-Myc expression [7]: reduced
BRD4 level [8]: unchanged

COc1ccc(C2=NC(c3ccc(Cl)cc3)C(c3ccc(Cl)cc3)N2C(=O)N2CCNC(=O)C2)c(OC(C)C)c1 (stereo not shown) [Nutlin]
Dose 1 (IC40 of downstream effector readout) [9]: 3,000 nM

CC(C)(C)c1nc2c3cc[nH]c(=O)c3c3cc(F)ccc3c2[nH]1 [P6]
Dose 1 (IC40 of downstream effector readout) [10]: 20 nM

O=C(NOC[C@H](O)CO)c1ccc(F)c(F)c1Nc1ccc(I)cc1F [PD0325901]
Emax [4, 14]: 13%
cells in G1 stage [5]: 88%
c-Myc level relative to unperturbed condition [2]: lowest
Dose 1 (IC40 of downstream effector readout) [11]: 1.5 nM

CCCS(=O)(=O)Nc1ccc(F)c(C(=O)c2c[nH]c3ncc(Cl)cc23)c1F [PLX4720]
pIC50 ([4]; RAFi resistant SkMel133 cells, single agent, read-out: IC50 for single agent): < 6.00
pIC50 ([4]; SkMel133, combined with JQ1 (120 nM), read-out: concentration of RAFi reducing cell viability by 50%): 6.92
Emax [4, 14]: 12%
c-Myc level relative to unperturbed condition [2]: lowest
Dose 1 (IC40 of downstream effector readout) [11]: 60 nM

Cn1cc(C2=C(c3cn(CCCN)c4ccccc34)C(=O)NC2=O)c2ccccc21 [RO-31-7549]
c-Myc level relative to unperturbed condition [2]: lowest
Dose 1 (IC40 of downstream effector readout) [12]: 3500 nM

O=[N+]([O-])c1ccc2c(c1)S(=O)(=O)C=C2 [Stattic]
Dose 1 (IC40 of downstream effector readout) [13]: 600 nM

CO[C@H]1C[C@@H]2CC[C@@H](C)[C@@](O)(O2)C(=O)C(=O)N2CCCC[C@H]2C(=O)O[C@H]([C@H](C)C[C@@H]2CC[C@@H](OC(=O)C(C)(CO)CO)[C@H](OC)C2)CC(=O)[C@H](C)/C=C(\C)[C@@H](O)[C@@H](OC)C(=O)[C@H](C)C[C@H](C)/C=C/C=C/C=C/1C [Temsirolimus]
Dose 1 (IC40 of downstream effector readout) [12]: 0.3 nM

FC(F)c1nc2ccccc2n1-c1nc(N2CCOCC2)nc(N2CCOCC2)n1 [ZSTK474]
Dose 1 (IC40 of downstream effector readout) [1]: 600 nM
